Series [1] has as its target T1, Short transient receptor potential channel 5 (Homo sapiens, UniProt Q9UL62).
T1 sequence (Q9UL62 whole entry): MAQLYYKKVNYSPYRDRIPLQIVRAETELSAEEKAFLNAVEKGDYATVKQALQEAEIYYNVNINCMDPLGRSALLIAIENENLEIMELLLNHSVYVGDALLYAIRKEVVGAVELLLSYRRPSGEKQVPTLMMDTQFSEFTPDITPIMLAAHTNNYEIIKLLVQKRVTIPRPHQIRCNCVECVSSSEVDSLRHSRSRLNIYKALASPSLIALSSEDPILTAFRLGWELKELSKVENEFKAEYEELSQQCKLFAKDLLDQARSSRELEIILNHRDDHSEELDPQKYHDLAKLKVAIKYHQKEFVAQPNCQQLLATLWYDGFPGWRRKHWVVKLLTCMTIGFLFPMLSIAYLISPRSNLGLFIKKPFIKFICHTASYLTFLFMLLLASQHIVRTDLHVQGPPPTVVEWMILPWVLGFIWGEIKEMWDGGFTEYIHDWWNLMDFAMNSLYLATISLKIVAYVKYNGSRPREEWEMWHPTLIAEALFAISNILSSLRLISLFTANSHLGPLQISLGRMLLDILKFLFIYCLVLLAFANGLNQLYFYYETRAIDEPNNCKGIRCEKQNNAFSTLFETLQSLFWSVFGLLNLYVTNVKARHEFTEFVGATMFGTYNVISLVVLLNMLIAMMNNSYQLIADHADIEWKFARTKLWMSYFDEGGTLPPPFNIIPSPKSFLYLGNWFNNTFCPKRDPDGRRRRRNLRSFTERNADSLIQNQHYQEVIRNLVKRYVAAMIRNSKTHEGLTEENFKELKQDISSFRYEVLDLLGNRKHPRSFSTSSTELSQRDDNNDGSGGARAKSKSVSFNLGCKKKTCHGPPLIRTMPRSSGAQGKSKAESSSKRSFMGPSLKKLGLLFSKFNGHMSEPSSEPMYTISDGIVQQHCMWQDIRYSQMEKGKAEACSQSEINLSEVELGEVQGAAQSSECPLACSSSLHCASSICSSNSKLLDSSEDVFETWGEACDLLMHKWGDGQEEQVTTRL
In words: Inhibition of TRPC5 channel (unknown origin) expressed in HEK293 cells assessed as inhibition of EA-evoked Ca2+ entry by measuring reduction in intracellular Ca2+ level by Fluo-4 dye based FLIPR assay. It counts as cell-based.

The target in series [2] is T1, Short transient receptor potential channel 5. Put plainly: Inhibition of human TRPC5 channel expressed in HEK293 cells assessed as inhibition of EA-evoked channel current measured at +80 mV by whole-cell voltage clamp assay. The class given is cell-based.
In series [3] the target is T2, Short transient receptor potential channel 4 (Homo sapiens, UniProt Q9UBN4).
T2 sequence (Q9UBN4 whole entry): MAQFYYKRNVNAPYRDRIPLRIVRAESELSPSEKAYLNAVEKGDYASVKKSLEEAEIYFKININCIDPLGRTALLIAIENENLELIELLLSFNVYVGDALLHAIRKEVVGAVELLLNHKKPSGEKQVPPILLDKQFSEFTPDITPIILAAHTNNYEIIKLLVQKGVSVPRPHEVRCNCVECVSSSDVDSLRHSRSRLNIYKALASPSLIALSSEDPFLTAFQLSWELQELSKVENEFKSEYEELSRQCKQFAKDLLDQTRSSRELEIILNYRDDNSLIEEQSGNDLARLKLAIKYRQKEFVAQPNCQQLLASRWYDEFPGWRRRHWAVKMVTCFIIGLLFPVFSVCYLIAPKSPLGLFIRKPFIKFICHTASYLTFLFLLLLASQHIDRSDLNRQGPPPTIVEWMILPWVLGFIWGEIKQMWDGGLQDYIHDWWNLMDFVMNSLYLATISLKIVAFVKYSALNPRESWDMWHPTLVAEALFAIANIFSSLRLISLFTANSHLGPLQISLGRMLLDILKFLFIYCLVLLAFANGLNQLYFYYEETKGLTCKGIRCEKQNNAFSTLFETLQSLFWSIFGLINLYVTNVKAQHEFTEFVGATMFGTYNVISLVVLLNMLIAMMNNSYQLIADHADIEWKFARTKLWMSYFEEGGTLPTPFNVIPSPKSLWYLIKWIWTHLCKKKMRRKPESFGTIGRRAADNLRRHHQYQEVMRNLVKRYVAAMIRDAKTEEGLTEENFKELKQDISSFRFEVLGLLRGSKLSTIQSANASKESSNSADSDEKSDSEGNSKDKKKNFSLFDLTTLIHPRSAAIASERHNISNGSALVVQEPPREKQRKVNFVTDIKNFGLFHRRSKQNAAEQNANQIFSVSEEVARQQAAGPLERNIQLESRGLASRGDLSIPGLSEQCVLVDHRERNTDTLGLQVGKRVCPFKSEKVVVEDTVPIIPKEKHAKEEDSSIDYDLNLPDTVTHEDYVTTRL
Put plainly: (§1) Inhibition of TRPC4 channel (unknown origin) expressed in HEK293 cells assessed as inhibition of EA-evoked Ca2+ entry by measuring reduction in intracellular Ca2+ level by Fluo-4 dye based FLIPR assay. The class given is cell-based.

Series [4] deals with T3, Short transient receptor potential channel 4 (Homo sapiens) (UniProt Q9UBN4).
T3 sequence (whole entry): T2 sequence (Q9UBN4 whole entry)
The series is described as §1. The conditions noted are these: DDE = dose-dependent effect. The class given is cell-based.

Series [5] can be described thus: Cytotoxicity against mouse MPC5 cells assessed as reduction in cell viability at 1 to 10 uM by MTT assay. The class given is toxicity, cell-based. The note with it: mpc-5, 10 µM, dose 1-10 µM. A general note: Formazan colour is commonly taken as a measure of viable cells.
The target of series [6] is T4, Short transient receptor potential channel 3 (Homo sapiens) (UniProt Q13507).
T4 sequence (whole entry): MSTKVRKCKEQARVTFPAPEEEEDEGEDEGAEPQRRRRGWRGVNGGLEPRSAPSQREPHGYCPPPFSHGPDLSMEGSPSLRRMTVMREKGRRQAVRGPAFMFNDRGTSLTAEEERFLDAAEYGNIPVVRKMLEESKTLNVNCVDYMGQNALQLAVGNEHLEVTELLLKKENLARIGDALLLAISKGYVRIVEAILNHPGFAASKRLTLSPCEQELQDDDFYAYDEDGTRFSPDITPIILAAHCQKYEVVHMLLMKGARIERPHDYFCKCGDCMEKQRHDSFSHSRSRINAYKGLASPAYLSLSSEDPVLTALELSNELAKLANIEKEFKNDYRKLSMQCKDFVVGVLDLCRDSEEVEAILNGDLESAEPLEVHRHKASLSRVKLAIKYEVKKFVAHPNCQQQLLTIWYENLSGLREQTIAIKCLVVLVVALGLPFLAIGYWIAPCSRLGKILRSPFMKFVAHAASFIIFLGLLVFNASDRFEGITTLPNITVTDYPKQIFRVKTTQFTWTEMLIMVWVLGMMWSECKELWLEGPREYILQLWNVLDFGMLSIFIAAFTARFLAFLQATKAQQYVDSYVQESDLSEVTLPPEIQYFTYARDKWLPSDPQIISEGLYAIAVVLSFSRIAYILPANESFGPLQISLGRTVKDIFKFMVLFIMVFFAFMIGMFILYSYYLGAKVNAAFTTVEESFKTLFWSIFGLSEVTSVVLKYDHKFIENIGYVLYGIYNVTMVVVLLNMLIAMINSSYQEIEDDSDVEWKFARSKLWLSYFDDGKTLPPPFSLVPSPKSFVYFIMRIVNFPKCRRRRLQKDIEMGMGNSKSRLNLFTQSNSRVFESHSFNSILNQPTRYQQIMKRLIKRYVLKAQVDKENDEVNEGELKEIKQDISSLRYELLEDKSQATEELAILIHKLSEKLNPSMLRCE
Put plainly: Inhibition of human TRPC3 channel expressed in HEK293 cells assessed as inhibition of OAG-evoked Ca2+ entry by measuring reduction in intracellular Ca2+ level by Fluo-4 dye based FLIPR assay. It counts as cell-based.

Series [7] concerns MPC-5. In words: Reno-protectant activity against protamine sulfate-induced podocytes injury in mouse MPC5 cells assessed as reduction in PS-induced podocytes rearrangement and rupture of stress fibers at 0.1 to 3 uM pretreated for 30 mins followed by stimulation with PS for 100 mins. It counts as functional, cell-based. The conditions noted are these: dose 0.1-3 µM, time 130.0 min, DDE = dose-dependent effect.

In series [8] the test system is Hepatocyte. Put plainly: Cytotoxicity against primary mouse hepatocytes assessed as reduction in cell viability at 1 to 10 uM by MTT assay. It counts as toxicity, cell-based. The note with it: dose 1-10 µM.

One may read the IC50 as the concentration that inhibits the measured activity by half.

Structures are written as SMILES. Activity calls are given as the source filed them. The calls are words filed in the database; no cut-off is given here.

In the case of `Cc1cc(F)ccc1Oc1ncnc2c1CCN(C1=C(Cl)C(=O)NC1=O)C2`, in series [1], the IC50 was above 10000 nM.
On the same count and under the same terms, in the case of `O=C(NCc1ccccc1C(F)(F)F)C1CN(c2cn[nH]c(=O)c2Cl)C1` it was above 10000 nM; in that of `O=C1CN(c2cn[nH]c(=O)c2Cl)CN1Cc1ccccc1C(F)(F)F`, above 10000 nM.
On to `O=C1CN(c2cc(=O)[nH]c(=O)[nH]2)CCN1Cc1ccccc1C(F)(F)F`, for which the 50% inhibitory concentration (IC50) in series [1] is above 10000 nM.
Still for that read-out and setting: as for `O=C1NC(=O)C(N2CCc3c(ncnc3Oc3ccc(C(F)(F)F)cc3)C2)=C1Cl`, the figure is above 10000 nM.
The same measure, in the same setting: in the case of `Cn1ncc(N2CCN(Cc3ccccc3C(F)(F)F)C(=O)C2)c(Cl)c1=O` it was above 10000 nM; in that of `O=C1NC(=O)C(N2CCc3ncn(Cc4ccccc4C(F)(F)F)c3C2)=C1Cl`, 860 nM; in that of `O=C1CN(c2cn[nH]c(=O)c2)CCN1Cc1ccccc1C(F)(F)F`, above 10000 nM.
Same read-out and setting: in the case of `O=C1NC(=O)C(N2CCc3c(ncnc3Oc3ccccc3C(F)(F)F)C2)=C1Cl` it was 452 nM; in that of `O=C1NC(=O)C(N2CCc3c(ncnc3Oc3ccc(F)cc3C3CC3)C2)=C1Cl`, 111 nM.
As for `O=C1NC(=O)C(N2CCc3c(ncnc3Oc3ccc(F)cc3C(F)(F)F)C2)=C1Cl`, the figures for the IC50 in series [2], in series [3] and in series [1] were 14.1 nM, 65 nM and 60 nM, respectively. Also, the inhibition result in series [4] is “Dde”. In addition, the Activity entry was “Non-Toxic” in series [5], “Dde” in series [7] and “Non-Toxic” in series [8]. Besides, the inhibition entry in series [6] was “Active”.
As to `O=C1NC(=O)C(N2CCc3c(ncnc3Oc3c(F)cccc3C(F)(F)F)C2)=C1Cl`, the half-inhibitory concentration (IC50) in series [1] was found to be 776 nM.
For `O=C1NC(=O)C(N2CCc3c(ncnc3Oc3ccc(Cl)cc3C(F)(F)F)C2)=C1Cl`, the IC50 in series [1] was found to be 314 nM.
With `N#Cc1cc(F)ccc1Oc1ncnc2c1CCN(C1=C(Cl)C(=O)NC1=O)C2`, the 50% inhibitory concentration (IC50) in series [1] was determined as 664 nM.
Consider `O=C1NC(=O)C(N2CCc3c(ncnc3Oc3cccc(C(F)(F)F)c3)C2)=C1Cl`, for which the IC50 in series [1] was above 10000 nM.
In the case of `O=C(CC1CN(c2cn[nH]c(=O)c2Cl)C1)NCc1ccccc1C(F)(F)F`, the IC50 in series [1] was above 10000 nM.
As for `O=C1NC(=O)C(N2CCc3c(cnn3Cc3ccccc3C(F)(F)F)C2)=C1Cl`, the IC50 in series [1] turned out to be 955 nM.
Same read-out and setting: in the case of `Cn1c(N2CCN(Cc3ccccc3C(F)(F)F)C(=O)C2)cc(=O)n(C)c1=O` it was above 10000 nM; in that of `O=C1NC(=O)C(N2CCc3c(nc(C4CC4)nc3Oc3ccc(F)cc3C(F)(F)F)C2)=C1Cl`, 2080 nM; in that of `Cc1nc2c(c(Oc3ccc(F)cc3C(F)(F)F)n1)CCN(C1=C(Cl)C(=O)NC1=O)C2`, 125 nM.
Still for that read-out and setting: in the case of `O=C1NC(=O)C(N2CCc3c(ncnc3Oc3ccc(F)cc3C3CCC3)C2)=C1Cl` it was above 10000 nM; in that of `O=C1NC(=O)C(N2CCc3c(ncnc3Oc3ccc(F)cc3C3CCCC3)C2)=C1Cl`, above 10000 nM.
Consider `O=C1NC(=O)C(N2CCN(Cc3ccccc3C(F)(F)F)C(=O)C2)=C1Cl`, for which the 50% inhibitory concentration (IC50) in series [1] is 10400 nM.
Same read-out and setting: as for `Cn1c(N2CCN(Cc3ccccc3C(F)(F)F)C(=O)C2)cc(=O)[nH]c1=O`, the figure is above 10000 nM; as for `O=C1NC(=O)C(N2CCc3c(ncnc3Oc3ccc(F)cc3CC(F)(F)F)C2)=C1Cl`, 2540 nM.
On the same count and under the same terms, as for `O=C1NC(=O)C(N2CCc3c(ncnc3Oc3ccccc3Cl)C2)=C1Cl`, the figure is 654 nM.
Regarding `O=C1CN(c2cn[nH]c(=O)c2Cl)CCN1Cc1ccccc1C(F)(F)F`, the IC50 in series [2] worked out at 50.1 nM; in series [1] it was 211 nM. The Activity result is “Non-Toxic” in series [5], “Dde” in series [7] and “Non-Toxic” in series [8].
For the compound `O=C1NC(=O)C(N2CCc3c(ncnc3Oc3ccc(F)cc3Cl)C2)=C1Cl`, the IC50 in series [1] worked out at 280 nM.
On to `CCc1ccccc1Oc1ncnc2c1CCN(C1=C(Cl)C(=O)NC1=O)C2`, for which, in series [1], the IC50 came to 1070 nM.
Still for that read-out and setting: in the case of `C#Cc1cc(F)ccc1Oc1ncnc2c1CCN(C1=C(Cl)C(=O)NC1=O)C2` it was 629 nM; in that of `O=C1CN(c2cc(=O)[nH]cn2)CCN1Cc1ccccc1C(F)(F)F`, above 10000 nM.
On to `CN(Cc1ccccc1C(F)(F)F)C(=O)C1CN(c2cn[nH]c(=O)c2Cl)C1`, for which the IC50 in series [1] was above 10000 nM.
As to `CCc1nc2c(c(Oc3ccc(F)cc3C(F)(F)F)n1)CCN(C1=C(Cl)C(=O)NC1=O)C2`, the IC50 in series [1] amounted to 798 nM.
The same measure, in the same setting: as for `CN(CC(=O)NCc1ccccc1C(F)(F)F)c1cn[nH]c(=O)c1Cl`, the figure is above 10000 nM.

For the origin of these results see ChEMBL document CHEMBL5143583, “Discovery of pyrroledione analogs as potent transient receptor potential canonical channel 5 inhibitors” (Bioorg Med Chem Lett, 2022).
